Source: the supplement of paper PMC10307832

Tests used:
Experiment in all cases: relative viability (nuclei count vs DMSO), 5 days (fraction); higher = more cells survive
[1] = compound: c1ccc2c(CCNc3ccc(Nc4ccncc4)cc3)c[nH]c2c1 [Serdemetan] + CS(=O)(=O)CCNCc1ccc(-c2ccc3ncnc(Nc4ccc(OCc5cccc(F)c5)c(Cl)c4)c3c2)o1 [Lapatinib] (partner 2 µM)
Outline: (§1)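 Lung cancer cell lines were pin-tool dosed in 1536-well plates on the day after seeding, with either a lone drug or a fixed anchor-drug dose plus five library-drug doses (not always all listed) in √10 steps. Nuclei were counted on 4× images after 5 days. Relative viability is the ratio of treated-well to vehicle-well nuclei counts, with each value a median of duplicate plates.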

[2] = compound: C1CC(C2=C(C1)C3=C(N2)C=CC(=C3)Cl)C(=O)N [Selisistat] + O=C(c1cc(Cc2n[nH]c(=O)c3ccccc23)ccc1F)N1CCN(C(=O)C2CC2)CC1 [Olaparib] (partner 8 µM)
Outline: as §1

[3] = compound: c1ccc2c(CCNc3ccc(Nc4ccncc4)cc3)c[nH]c2c1 [Serdemetan] + CC1(C)CCC(c2ccc(Cl)cc2)=C(CN2CCN(c3ccc(C(=O)NS(=O)(=O)c4ccc(N[C@H](CCN5CCOCC5)CSc5ccccc5)c(S(=O)(=O)C(F)(F)F)c4)cc3)CC2)C1 [Navitoclax] (partner 0.5 µM)
Outline: as §1

[4] = compound: c1ccc2c(CCNc3ccc(Nc4ccncc4)cc3)c[nH]c2c1 [Serdemetan] + CC(=O)c1c(C)c2cnc(Nc3ccc(N4CCNCC4)cn3)nc2n(C2CCCC2)c1=O [Palbociclib] (partner 0.5 µM)
Outline: as §1

For UMC-11, the relative viability ([1]; first compound 0.04 µM) was 0.953, the relative viability ([1]; first compound 0.1265 µM) was 0.915 and the relative viability ([1]; first compound 0.4 µM) was 1.03. For the same cell line, the relative viability ([1]; first compound 1.265 µM) was 0.703, the relative viability ([1]; first compound 4 µM) was 0.886 and the relative viability ([2]; first compound 0.4 µM) was 0.331. For the same cell line, the relative viability ([2]; first compound 1.265 µM) was 0.356, the relative viability ([2]; first compound 4 µM) was 0.271 and the relative viability ([2]; first compound 12.65 µM) was 0.334. The relative viability ([2]; first compound 40 µM) was 0.353, the relative viability ([3]; first compound 0.04 µM) was 0.327 and the relative viability ([3]; first compound 0.1265 µM) was 0.387. The relative viability ([3]; first compound 0.4 µM) was 0.314, the relative viability ([3]; first compound 1.265 µM) was 0.266 and the relative viability ([3]; first compound 4 µM) was 0.313. The relative viability ([4]; first compound 0.04 µM) was 0.333, the relative viability ([4]; first compound 0.1265 µM) was 0.343 and the relative viability ([4]; first compound 0.4 µM) was 0.381. The relative viability ([4]; first compound 1.265 µM) was 0.344 and the relative viability ([4]; first compound 4 µM) was 0.281.
